US10206394B2, “Herbicidal compounds” (Syngenta Participations AG, priority 2014, dated 2019)
Where two headings read alike, the source gives them in different places.

How the values were obtained:
Assay in all cases: Glasshouse assay for herbicidal activity (pre- and post-emergence), percentage phytotoxicity
Assay type in all cases: in vivo
[1] = system: Alopecurus myosuroides (ALOMY); conditions: Alopecurus myosuroides
Outline: (§1)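 Percent injury was estimated by eye on a scale where 0% means no damage and 100% complete damage. Ratings came 15 DAA post-emergence and 20 DAA pre-emergence, with plants held under 16 h light and 65% humidity at 24/18 °C or 20/16 °C day/night.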

Lolium perenne (LOLPE) = conditions: Lolium perenne
Outline: as §1

[2] = system: Echinochloa crus-galli (ECHCG); conditions: Echinochloa crus-galli
Outline: as §1

Avena fatua (AVEFA) = conditions: Avena fatua
Outline: as §1

[3] = post-emergence, 360 h, 250 g/ha, post-emergence, 15 DAA, visual assessment (100%=total damage, 0%=no damage), read-out: Post-emergence herbicidal activity (percentage phytotoxicity) ALOMY POST
[4] = pre-emergence, 480 h, 250 g/ha, pre-emergence, 20 DAA, visual assessment (100%=total damage, 0%=no damage), read-out: Pre-emergence herbicidal activity (percentage phytotoxicity) ALOMY PRE
[5] = post-emergence, 360 h, 250 g/ha, post-emergence, 15 DAA, visual assessment (100%=total damage, 0%=no damage), read-out: Post-emergence herbicidal activity (percentage phytotoxicity) LOLPE POST
[6] = pre-emergence, 480 h, 250 g/ha, pre-emergence, 20 DAA, visual assessment (100%=total damage, 0%=no damage), read-out: Pre-emergence herbicidal activity (percentage phytotoxicity) LOLPE PRE
[7] = post-emergence, 360 h, 250 g/ha, post-emergence, 15 DAA, visual assessment (100%=total damage, 0%=no damage), read-out: Post-emergence herbicidal activity (percentage phytotoxicity) ECHCG POST
[8] = pre-emergence, 480 h, 250 g/ha, pre-emergence, 20 DAA, visual assessment (100%=total damage, 0%=no damage), read-out: Pre-emergence herbicidal activity (percentage phytotoxicity) ECHCG PRE
[9] = post-emergence, 360 h, 250 g/ha, post-emergence, 15 DAA, visual assessment (100%=total damage, 0%=no damage), read-out: Post-emergence herbicidal activity (percentage phytotoxicity) AVEFA POST
[10] = pre-emergence, 480 h, 250 g/ha, pre-emergence, 20 DAA, visual assessment (100%=total damage, 0%=no damage), read-out: Pre-emergence herbicidal activity (percentage phytotoxicity) AVEFA PRE
[11] = post-emergence, 360 h, Rate 250 g/ha, post-emergence, assessed visually 15 DAA, 100%=total damage, 0%=no damage, read-out: Post-emergence herbicidal activity (percentage phytotoxicity) ALOMY POST
[12] = pre-emergence, 480 h, Rate 250 g/ha, pre-emergence, assessed visually 20 DAA, 100%=total damage, 0%=no damage, read-out: Pre-emergence herbicidal activity (percentage phytotoxicity) ALOMY PRE
[13] = post-emergence, 360 h, Rate 250 g/ha, post-emergence, assessed visually 15 DAA, 100%=total damage, 0%=no damage, read-out: Post-emergence herbicidal activity (percentage phytotoxicity) LOLPE POST
[14] = pre-emergence, 480 h, Rate 250 g/ha, pre-emergence, assessed visually 20 DAA, 100%=total damage, 0%=no damage, read-out: Pre-emergence herbicidal activity (percentage phytotoxicity) LOLPE PRE
[15] = post-emergence, 360 h, Rate 250 g/ha, post-emergence, assessed visually 15 DAA, 100%=total damage, 0%=no damage, read-out: Post-emergence herbicidal activity (percentage phytotoxicity) ECHCG POST
[16] = pre-emergence, 480 h, Rate 250 g/ha, pre-emergence, assessed visually 20 DAA, 100%=total damage, 0%=no damage, read-out: Pre-emergence herbicidal activity (percentage phytotoxicity) ECHCG PRE
[17] = post-emergence, 360 h, Rate 250 g/ha, post-emergence, assessed visually 15 DAA, 100%=total damage, 0%=no damage, read-out: Post-emergence herbicidal activity (percentage phytotoxicity) AVEFA POST
[18] = pre-emergence, 480 h, Rate 250 g/ha, pre-emergence, assessed visually 20 DAA, 100%=total damage, 0%=no damage, read-out: Pre-emergence herbicidal activity (percentage phytotoxicity) AVEFA PRE

SMILES | pest or weed control at 250 g/ha [1, 3] [%] | pest or weed control at 250 g/ha [1, 4] [%] | pest or weed control at 250 g/ha (Lolium perenne (LOLPE); [5]) [%] | pest or weed control at 250 g/ha (Lolium perenne (LOLPE); [6]) [%] | pest or weed control at 250 g/ha [2, 7] [%] | pest or weed control at 250 g/ha [2, 8] [%] | pest or weed control at 250 g/ha (Avena fatua (AVEFA); [9]) [%] | pest or weed control at 250 g/ha (Avena fatua (AVEFA); [10]) [%] | pest or weed control at 250 g/ha [1, 11] [%] | pest or weed control at 250 g/ha [1, 12] [%] | pest or weed control at 250 g/ha (Lolium perenne (LOLPE); [13]) [%] | pest or weed control at 250 g/ha (Lolium perenne (LOLPE); [14]) [%] | pest or weed control at 250 g/ha [2, 15] [%] | pest or weed control at 250 g/ha [2, 16] [%] | pest or weed control at 250 g/ha (Avena fatua (AVEFA); [17]) [%] | pest or weed control at 250 g/ha (Avena fatua (AVEFA); [18]) [%] | further results
COc1ccc(CNC(=O)CC2CC(=O)C(c3c(C)cc(-c4ncc(F)cc4F)cc3C)C2=O)cc1 (stereo not drawn) [Compound B91] | 100 | 80 | 100 | 90 | 100 | 80 | 100 | 70 |  |  |  |  |  |  |  |  | 
Cc1cc(-c2ncccc2Cl)cc(C)c1C1C(=O)CC(CC(=O)NC(C)(C)C)C1=O (stereo not drawn) [Compound B74] | 60 | 10 | 50 | 30 | 60 | 10 | 60 | 0 |  |  |  |  |  |  |  |  | 
CC#Cc1cc(C)c(C2C(=O)CC(CC(=O)N(C)CCC)C2=O)c(CC)c1 (stereo not drawn) [Compound A79] |  |  |  |  |  |  |  |  | 100 | 100 | 100 | 100 | 100 | 100 | 100 | 100 | 
Cc1cc(-c2ncc(F)cn2)cc(C)c1C1C(=O)CC(CC(=O)NC2CCCC2)C1=O (stereo not drawn) [Compound B114] | 90 | 90 | 90 | 90 | 100 | 100 | 90 | 60 |  |  |  |  |  |  |  |  | 
Cc1cc(C)c(C2C(=O)CC(C(C)C(=O)NC(C)(C)C)C2=O)c(C)c1 (stereo not drawn) [Compound A164] |  |  |  |  |  |  |  |  | 70 | 70 | 60 | 60 | 70 | 70 | 70 | 10 | 
Cc1cc(-c2ncc(Cl)cn2)cc(C)c1C1C(=O)CC(CC(=O)NCc2cccs2)C1=O (stereo not drawn) [Compound B353] |  |  |  |  |  |  |  |  |  |  |  |  |  |  |  |  | pest or weed control at 250 g/ha ([1]; post-emergence, 360 h, Rate 250 g/ha, post-emergence, visual assessment 15 DAA, 100%=total damage, 0%=no damage, read-out: Post-emergence herbicidal activity (percentage phytotoxicity) ALOMY POST): 90%; pest or weed control at 250 g/ha ([1]; pre-emergence, 480 h, Rate 250 g/ha, pre-emergence, visual assessment 20 DAA, 100%=total damage, 0%=no damage, read-out: Pre-emergence herbicidal activity (percentage phytotoxicity) ALOMY PRE): 80%; pest or weed control at 250 g/ha (Lolium perenne (LOLPE); post-emergence, 360 h, Rate 250 g/ha, post-emergence, visual assessment 15 DAA, 100%=total damage, 0%=no damage, read-out: Post-emergence herbicidal activity (percentage phytotoxicity) LOLPE POST): 100%; pest or weed control at 250 g/ha (Lolium perenne (LOLPE); pre-emergence, 480 h, Rate 250 g/ha, pre-emergence, visual assessment 20 DAA, 100%=total damage, 0%=no damage, read-out: Pre-emergence herbicidal activity (percentage phytotoxicity) LOLPE PRE): 90%; pest or weed control at 250 g/ha ([2]; post-emergence, 360 h, Rate 250 g/ha, post-emergence, visual assessment 15 DAA, 100%=total damage, 0%=no damage, read-out: Post-emergence herbicidal activity (percentage phytotoxicity) ECHCG POST): 100%; pest or weed control at 250 g/ha ([2]; pre-emergence, 480 h, Rate 250 g/ha, pre-emergence, visual assessment 20 DAA, 100%=total damage, 0%=no damage, read-out: Pre-emergence herbicidal activity (percentage phytotoxicity) ECHCG PRE): 100%; pest or weed control at 250 g/ha (Avena fatua (AVEFA); post-emergence, 360 h, Rate 250 g/ha, post-emergence, visual assessment 15 DAA, 100%=total damage, 0%=no damage, read-out: Post-emergence herbicidal activity (percentage phytotoxicity) AVEFA POST): 100%; pest or weed control at 250 g/ha (Avena fatua (AVEFA); pre-emergence, 480 h, Rate 250 g/ha, pre-emergence, visual assessment 20 DAA, 100%=total damage, 0%=no damage, read-out: Pre-emergence herbicidal activity (percentage phytotoxicity) AVEFA PRE): 90%
